≈ marks a conversion by molar mass, not a printed value. Read-outs that look alike come from different tables or passages of the source. Marks after values point to notes of the source that are not given here.
Columns and labels:
P. berghei [1] = assay: 1-day Peters test against P. berghei in vivo; settings: for oral activity based on po ED50/ED90 values: ranking among trioxolanes and controls
[2] = tested on: 21-day-old schistosomules of Schistosoma mansoni; assay: effect on 21-day-old schistosomules in mice; format: in vivo; settings: single 200 mg/kg per os; for FWR (%): female worm reduction rate; for Mean female worm burden: mean ± standard deviation; for TWR (%): total worm reduction rate
Method: […] Each group was treated per os with OZ compounds at a single dose of 200 mg/kg. Untreated mice served as the control. All groups were killed 4 weeks after treatment and the liver and intestine were removed and separated. The liver and intestine were compressed and alive male and female worms could be seen and counted. The effect of the compounds was evaluated by mean total and female worm burden.

[3] = tested on: ANKA strain of P. Berghei; assay: single dose STI in vivo screen in infected Moro SPF mice; settings: for inhibition in vivo at 10 mg/kg: Plasmodium berghei, 72 h
P. berghei [4] = assay: 4-day Peters test against P. berghei in vivo; settings: 4 day
[5] = differential scanning calorimetry (DSC), thermal stability; format: physicochemical; settings: thermal decomposition
[6] = tested on: adult schistosomes (49-day-old) of Schistosoma mansoni; assay: effect on adult schistosomes (49-day-old) in mice; format: in vivo; settings: dose used was 200 mg/kg; for TWR (%): total worm reduction rate; for Mean total worm burden: x ± SD
[7] = tested on: chloroquine-sensitive NF54 strain of P. falciparum; assay: in vitro screen against chloroquine-sensitive NF54 strain of P. falciparum; format: cell-based; settings: for IC50 (ng/ml) NF54: in vitro, NF54 strain
parasitemia = assay: onset of drug action and recrudescence after single oral dose; format: in vivo; settings: for Recrudescence (>5% parasitemia) occurs on day: single 100 mg/kg po on day +3 post-infection
Method: The reduction of parasitemia was monitored 12 h after treatment, and the time of recrudescence was assessed by daily blood smears for 14 days, followed by intermittent assessment for up to 30 days.

[8] = tested on: chloroquine-resistant K1 strain of P. falciparum; assay: in vitro screen against chloroquine-resistant K1 strain of P. falciparum; format: cell-based; settings: for IC50 (ng/ml) K1: in vitro, K1 strain
[9] = tested on: adult schistosomes (49-day-old) of Schistosoma mansoni; assay: effect on adult schistosomes (49-day-old) in mice; format: in vivo; settings: single 400 mg/kg per os; for TWR (%): total worm reduction rate; for Mean total worm burden: x ± SD
Method: Mice were infected with 100 Schistosoma mansoni cercariae […]. Each group was treated per os with OZ compounds at a single dose of 400 mg/kg. Untreated mice served as the control. All groups were killed 4 weeks after treatment and the liver and intestine were removed and separated. The liver and intestine were compressed and alive male and female worms could be seen and counted.

| Compound | P. berghei (1 day) ED50 po (P. berghei [1]; po) | P. berghei (1 day) ED90 po (P. berghei [1]; po) | P. berghei (1 day) ED90 sc (P. berghei [1]; sc) | oral activity based on po ED50/ED90 values (P. berghei [1]; po) | FWR (%) [2] | Mean female worm burden [2] | TWR (%) [2] | P. berghei (4 day) ED50 po (P. berghei [4]) | P. berghei (4 day) ED90 po (P. berghei [4]) | P. berghei (4 day) ED50 sc (P. berghei [4]) | P. berghei (4 day) ED90 sc (P. berghei [4]) | Tm dec. (° C.) [5] | Percentage of dead worm [6] | Total dead worm [6] | TWR (%) [6] | Mean total worm burden [6] | Recrudescence (>5% parasitemia) occurs on day (parasitemia) | IC50 (ng/ml) NF54 [7] | P. berghei (1 day) ED50 sc (P. berghei [1]; sc) | IC50 (ng/ml) K1 [8] | other results |
| --- | --- | --- | --- | --- | --- | --- | --- | --- | --- | --- | --- | --- | --- | --- | --- | --- | --- | --- | --- | --- | --- |
| CCOC(=O)N1CCC2(CC1)OOC1(O2)C2CC3CC(C2)CC1C3 (centres unmarked) [OZ23, Adamantane-2-spiro-3′-8′-ethoxycarbonyl-1′,2′,4′-trioxa-8′-azaspiro[4.5]decane] | 1.6 mg/kg | 5.5 mg/kg | NA/1.9 mg/kg | only slightly less orally active than OZ11 | 84% | 2.0 ± 1.0^b | 90% | 0.9 mg/kg | 2.0 mg/kg | 0.5 mg/kg | 0.9 mg/kg | 160.8 °C | 4 (5/124) | 5 | 0% | 39.7 ± 19.6 | – | – | – | – | in vivo activity ([3]; 10 mg/kg po/sc data of Table 2): best in vivo activity |
| C[C@H]1[C@H](OC(=O)CCC(=O)O)O[C@@H]2O[C@@]3(C)CC[C@H]4[C@H](C)CC[C@@H]1[C@@]24OO3 [Artesunate, artesunate, reference compound] | – | – | 16 mg/kg | – | – | – | – | – | – | – | – | – | – | – | – | – | 2 days | – | – | – | IC50 ([7]; Plasmodium falciparum, NF54, read-out: IC50 (ng/ml) NF54): 1.2 ng/mL (≈ 3.12 nM); ED50 (P. berghei [1]; Plasmodium berghei, po, 24 h, read-out: P. berghei (1 day) ED50 po): 5 mg/kg; ED90 (P. berghei [1]; Plasmodium berghei, po, 24 h, read-out: P. berghei (1 day) ED90 po): 13 mg/kg; ED50 (P. berghei [1]; Plasmodium berghei, sc, 24 h, read-out: P. berghei (1 day) ED50 sc): 0.86 mg/kg; inhibition in vivo at 10 mg/kg ([3]; po, read-out: Activity (%) po): 83.3%; inhibition in vivo at 10 mg/kg ([3]; sc, read-out: Activity (%) sc): 81.1%; Survival (days) po ([3]; single 10 mg/kg po): 7.1 days; Survival (days) sc ([3]; single 10 mg/kg sc): 8.0 days; onset of action: decline in parasitemia (parasitemia; single 100 mg/kg po, monitored 12 h after treatment): rapid decline in parasitemia; IC50 ([8]; Plasmodium falciparum, K1, read-out: IC50 (ng/ml) K1): 1.2 ng/mL (≈ 3.12 nM) |
| OC1CCC2(CC1)OOC1(O2)C2CC3CC(C2)CC1C3 (centres unmarked) [OZ32, Adamantane-2-spiro-3′-8′-hydroxy-1′,2′,4′-trioxaspiro[4.5]decane] | 1.9 mg/kg | 13 mg/kg | 2.1 mg/kg | – | 70% | 3.8 ± 1.9^b | 73% | 2.6 mg/kg | 5.1 mg/kg | 0.6 mg/kg | 1.3 mg/kg | 147.9 °C | – | – | – | – | – | 0.51 ng/mL (≈ 1.82 nM) | > 1 mg/kg | 0.25 ng/mL (≈ 0.892 nM) | Percentage of dead worm [9]: 27.6 (50/181); Total dead worm [9]: 50; TWR (%) [9]: 26.8%; Mean total worm burden [9]: 26.2 ± 5.9^b |
| c1ccc(C2CCC3(CC2)OOC2(O3)C3CC4CC(C3)CC2C4)cc1 (centres unmarked) [OZ27, Adamantane-2-spiro-3′-8′-phenyl-1′,2′,4′-trioxaspiro[4.5]decane] | 1.9 mg/kg | 3.2 mg/kg | 3.1 mg/kg | only slightly less orally active than OZ11 | 58% | 5.2 ± 1.6^b | 63% | 1.3 mg/kg | 2.6 mg/kg | 0.2 mg/kg | 0.9 mg/kg | 161.7 °C | – | – | – | – | 11 days | 4.8 ng/mL (≈ 14.1 nM) | 1.8 mg/kg | 2.2 ng/mL (≈ 6.46 nM) | antimalarial activity, overall assessment ([3]; overall judgement of in vitro and in vivo data of Table 2): excellent activity; duration of action compared with artemether (parasitemia; single 100 mg/kg po): longer; Percentage of dead worm [9]: 9.6 (15/157); Total dead worm [9]: 15; TWR (%) [9]: 19.6%; Mean total worm burden [9]: 28.4 ± 9.5^a |
| O=C1C2C3CC4C5C3C1C5C1(OOC3(O1)C1CC5CC(C1)CC3C5)C42 (centres unmarked) [OZ14, Adamantane-2-spiro-3′-1′,2′,4′-trioxolane-5′-spiro-8″-11″-oxopentacyclo[5.4.0.0^2″,6″.0^3″,10″.0^5″,9″]undecane] | – | – | – | – | 0% | 12.4 ± 4.2 | 7% | – | – | – | – | 113.3 °C | 0 | 0 | 0% | 44.5 ± 13.2 | – | – | – | – | – |

From US6486199B1, “Spiro and dispiro 1,2,4-trioxolane antimalarials” (Medicines for Malaria Venture MMV International Centre …, priority 2001, dated 2002)
